From article PMC7858579, “Biochemical and structural characterization of a recombinant fibrinogen-related lectin from Penaeus monodon” (Scientific Reports, 2021) come the findings set out here.

Molecules are shown by their SMILES.

Experiment [1] has as its target T1, His6 PmFREP (PmFREP; PL5-1) (Penaeus monodon, UniProt A0A068LKH5, G184D).
T1 construct: full length without native signal peptide; XEEL signal peptide (cleaved), N-terminal His6 tag kept; native part starts GTTERTDTA (from primer); Trichoplusia ni cells; disulfide-linked dimer of pentamers
As to the kind of experiment: inhibition of human red blood cell (type A) agglutination. The experiment is classed as cell-based. The following applies: 0.5 uM His6 PmFREP, 3% (v/v) red blood cells; multivalent avidity assay.

In experiment [2] the target is T1, His6 PmFREP (PmFREP; PL5-1). As to the kind of experiment: binding to GlcNAc affinity resin and competitive elution, western blot. Conditions: 100 mM monosaccharide, 20 mM HEPES pH 7.5, 150 mM NaCl, 10 mM CaCl2.

T1 sequence (A0A068LKH5 entry or part of it G184D): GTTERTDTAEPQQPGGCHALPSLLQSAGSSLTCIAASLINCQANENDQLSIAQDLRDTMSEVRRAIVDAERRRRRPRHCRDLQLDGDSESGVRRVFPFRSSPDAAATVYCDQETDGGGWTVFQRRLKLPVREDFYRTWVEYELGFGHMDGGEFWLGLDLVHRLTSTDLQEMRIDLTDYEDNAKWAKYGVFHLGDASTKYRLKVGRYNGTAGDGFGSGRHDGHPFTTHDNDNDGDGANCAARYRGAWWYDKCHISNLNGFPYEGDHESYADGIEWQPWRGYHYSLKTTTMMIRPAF

Take `CC(=O)N[C@H]1C(O)O[C@H](CO)[C@H](O)[C@@H]1O` (some centres unmarked) [GalNAc, N-acetylgalactosamine]: the concentration inhibiting agglutination in experiment [1] was ~ 10 mM.
`CC(=O)N[C@H]1C(O)O[C@H](CO)[C@@H](O)[C@@H]1O` (some centres unmarked) [GlcNAc]: the concentration inhibiting agglutination in experiment [1] is listed as ~ 10 mM. Also, the “binding to GlcNAc affinity resin and competitive elution, western blot” value in experiment [2] is on record as “His6 PmFREP can bind GlcNAc as expected for fibrinogen-like lectin”.
The compound `CC(=O)N[C@@H]1C(O)O[C@H](CO)[C@@H](O)[C@@H]1O` (some centres unmarked) [ManNAc, N-acetylmannosamine] gave a concentration inhibiting agglutination in experiment [1] of 1 mM.
Still for that read-out and setting: the same measure for `CC(=O)N[C@H]1[C@H]([C@H](O)[C@H](O)CO)OC(O)(C(=O)O)C[C@@H]1O` (some centres unmarked) [Neu5Ac, N-acetylneuraminic acid]: 5 mM.
